Source: the NIST ThermoML archive (doi:10.1021/acs.jced.8b00975)
Numbers after ± are expanded uncertainties.

Experiment: xn = mol fraction of the nth substance listed
Details: Liquid, Vibrating tube method

C=C(C)C(=O)OCCN(C)C [2-(dimethylamino)ethyl methylpropenoate] + CCCO
Details	mass density [kg/m3]
303.15 K, 15000 kPa, x1 = 0.201	858.56 ± 0.54
303.15 K, 15000 kPa, x1 = 0.3004	875.68 ± 0.54
303.15 K, 15000 kPa, x1 = 0.4007	889.57 ± 0.54
303.15 K, 15000 kPa, x1 = 0.4507	895.39 ± 0.54
303.15 K, 15000 kPa, x1 = 0.4985	900.58 ± 0.54
303.15 K, 15000 kPa, x1 = 0.5535	905.89 ± 0.54
303.15 K, 15000 kPa, x1 = 0.5907	909.22 ± 0.54
303.15 K, 15000 kPa, x1 = 0.7009	917.6 ± 0.54
303.15 K, 15000 kPa, x1 = 0.8	924.17 ± 0.55
303.15 K, 15000 kPa, x1 = 0.9043	929.96 ± 0.55
303.15 K, 15000 kPa, x1 = 0.9269	931 ± 0.55
303.15 K, 15000 kPa, x1 = 0.9551	932.41 ± 0.55
303.15 K, 20000 kPa, x1 = 0.0307	820.75 ± 0.56
303.15 K, 20000 kPa, x1 = 0.0599	829.13 ± 0.56
303.15 K, 20000 kPa, x1 = 0.1003	839.84 ± 0.55
303.15 K, 20000 kPa, x1 = 0.201	861.95 ± 0.55
303.15 K, 20000 kPa, x1 = 0.3004	879.16 ± 0.55
303.15 K, 20000 kPa, x1 = 0.4007	893.03 ± 0.55
303.15 K, 20000 kPa, x1 = 0.4507	898.86 ± 0.55
303.15 K, 20000 kPa, x1 = 0.4985	904.06 ± 0.55
303.15 K, 20000 kPa, x1 = 0.5535	909.38 ± 0.55
303.15 K, 20000 kPa, x1 = 0.5907	912.68 ± 0.55
303.15 K, 20000 kPa, x1 = 0.7009	921.09 ± 0.55
303.15 K, 20000 kPa, x1 = 0.8	927.7 ± 0.55
303.15 K, 20000 kPa, x1 = 0.9043	933.53 ± 0.56
303.15 K, 20000 kPa, x1 = 0.9269	934.55 ± 0.56
303.15 K, 20000 kPa, x1 = 0.9551	935.97 ± 0.56
303.15 K, 25000 kPa, x1 = 0.0307	824.03 ± 0.57
303.15 K, 25000 kPa, x1 = 0.0599	832.41 ± 0.57
303.15 K, 25000 kPa, x1 = 0.1003	843.1 ± 0.56
303.15 K, 25000 kPa, x1 = 0.201	865.23 ± 0.56
303.15 K, 25000 kPa, x1 = 0.3004	882.5 ± 0.55
303.15 K, 25000 kPa, x1 = 0.4007	896.41 ± 0.55
303.15 K, 25000 kPa, x1 = 0.4507	902.25 ± 0.55
303.15 K, 25000 kPa, x1 = 0.4985	907.45 ± 0.55
303.15 K, 25000 kPa, x1 = 0.5535	912.79 ± 0.55
303.15 K, 25000 kPa, x1 = 0.5907	916.07 ± 0.55
303.15 K, 25000 kPa, x1 = 0.7009	924.52 ± 0.55
303.15 K, 25000 kPa, x1 = 0.8	931.16 ± 0.56
303.15 K, 25000 kPa, x1 = 0.9043	937.03 ± 0.56
303.15 K, 25000 kPa, x1 = 0.9269	938.03 ± 0.56
303.15 K, 25000 kPa, x1 = 0.9551	939.47 ± 0.56
303.15 K, 30000 kPa, x1 = 0.0307	827.2 ± 0.59
303.15 K, 30000 kPa, x1 = 0.0599	835.6 ± 0.58
303.15 K, 30000 kPa, x1 = 0.1003	846.24 ± 0.58
303.15 K, 30000 kPa, x1 = 0.201	868.44 ± 0.57
303.15 K, 30000 kPa, x1 = 0.3004	885.74 ± 0.56
303.15 K, 30000 kPa, x1 = 0.4007	899.73 ± 0.56
303.15 K, 30000 kPa, x1 = 0.4507	905.59 ± 0.56
303.15 K, 30000 kPa, x1 = 0.4985	910.79 ± 0.56
303.15 K, 30000 kPa, x1 = 0.5535	916.16 ± 0.56
303.15 K, 30000 kPa, x1 = 0.5907	919.43 ± 0.56
303.15 K, 30000 kPa, x1 = 0.7009	927.94 ± 0.56
303.15 K, 30000 kPa, x1 = 0.8	934.59 ± 0.56
303.15 K, 30000 kPa, x1 = 0.9043	940.48 ± 0.56
303.15 K, 30000 kPa, x1 = 0.9269	941.51 ± 0.56
303.15 K, 30000 kPa, x1 = 0.9551	942.94 ± 0.56
303.15 K, 35000 kPa, x1 = 0.0307	830.29 ± 0.6
303.15 K, 35000 kPa, x1 = 0.0599	838.73 ± 0.59
303.15 K, 35000 kPa, x1 = 0.1003	849.31 ± 0.59
303.15 K, 35000 kPa, x1 = 0.201	871.66 ± 0.58
303.15 K, 35000 kPa, x1 = 0.3004	888.87 ± 0.57
303.15 K, 35000 kPa, x1 = 0.4007	903.03 ± 0.56
303.15 K, 35000 kPa, x1 = 0.4507	908.92 ± 0.56
303.15 K, 35000 kPa, x1 = 0.4985	914.12 ± 0.56
303.15 K, 35000 kPa, x1 = 0.5535	919.52 ± 0.56
303.15 K, 35000 kPa, x1 = 0.5907	922.81 ± 0.56
303.15 K, 35000 kPa, x1 = 0.7009	931.39 ± 0.56
303.15 K, 35000 kPa, x1 = 0.8	938.01 ± 0.56
303.15 K, 35000 kPa, x1 = 0.9043	943.91 ± 0.57
303.15 K, 35000 kPa, x1 = 0.9269	945.01 ± 0.57
303.15 K, 35000 kPa, x1 = 0.9551	946.41 ± 0.57
313.15 K, 100 kPa, x1 = 0.0303	797.13 ± 0.52
313.15 K, 100 kPa, x1 = 0.0602	805.6 ± 0.52
313.15 K, 100 kPa, x1 = 0.1007	816.21 ± 0.52
313.15 K, 100 kPa, x1 = 0.2003	838.07 ± 0.52
313.15 K, 100 kPa, x1 = 0.2989	854.98 ± 0.52
313.15 K, 100 kPa, x1 = 0.4005	869.05 ± 0.52
313.15 K, 100 kPa, x1 = 0.4513	875.07 ± 0.52
313.15 K, 100 kPa, x1 = 0.5026	880.52 ± 0.52
313.15 K, 100 kPa, x1 = 0.5521	885.29 ± 0.53
313.15 K, 100 kPa, x1 = 0.6025	889.7 ± 0.53
313.15 K, 100 kPa, x1 = 0.6976	897.07 ± 0.53
313.15 K, 100 kPa, x1 = 0.8037	903.96 ± 0.53
313.15 K, 100 kPa, x1 = 0.9043	909.46 ± 0.54
313.15 K, 100 kPa, x1 = 0.933	910.82 ± 0.54
313.15 K, 100 kPa, x1 = 0.9605	912.22 ± 0.54
313.15 K, 5000 kPa, x1 = 0.0303	801.51 ± 0.53
313.15 K, 5000 kPa, x1 = 0.0602	809.95 ± 0.53
313.15 K, 5000 kPa, x1 = 0.1007	820.42 ± 0.53
313.15 K, 5000 kPa, x1 = 0.2003	842.22 ± 0.53
313.15 K, 5000 kPa, x1 = 0.2989	859.16 ± 0.53
313.15 K, 5000 kPa, x1 = 0.4005	873.2 ± 0.53
313.15 K, 5000 kPa, x1 = 0.4513	879.17 ± 0.53
313.15 K, 5000 kPa, x1 = 0.5026	884.58 ± 0.53
313.15 K, 5000 kPa, x1 = 0.5521	889.39 ± 0.53
